# ChEMBL document CHEMBL3632590, “Development of Safe and Effective Botanical Dietary Supplements” (J Med Chem, 2015)
# Columns and labels:
# Cytochrome P450 2D6 = Cytochrome P450 2D6 (Homo sapiens, UniProt P10635); test: Competitive inhibition of CYP2D6 (unknown origin) using dextromethorphan substrate; assay type: ADME
# [1] = Terminal half life in human at 60 mg, po by LC-MS/MS method; assay type: ADME, organism-based; details: in vivo, read-out: beta t1/2 (converted)
# [2] = Oral bioavailability in human; assay type: ADME, organism-based; details: in vivo
# [3] = Terminal half life in orally dosed human by LC-MS/MS method; assay type: ADME, organism-based; details: in vivo, po, read-out: beta t1/2
# Cytochrome P450 2D6, sequence (P10635 whole entry): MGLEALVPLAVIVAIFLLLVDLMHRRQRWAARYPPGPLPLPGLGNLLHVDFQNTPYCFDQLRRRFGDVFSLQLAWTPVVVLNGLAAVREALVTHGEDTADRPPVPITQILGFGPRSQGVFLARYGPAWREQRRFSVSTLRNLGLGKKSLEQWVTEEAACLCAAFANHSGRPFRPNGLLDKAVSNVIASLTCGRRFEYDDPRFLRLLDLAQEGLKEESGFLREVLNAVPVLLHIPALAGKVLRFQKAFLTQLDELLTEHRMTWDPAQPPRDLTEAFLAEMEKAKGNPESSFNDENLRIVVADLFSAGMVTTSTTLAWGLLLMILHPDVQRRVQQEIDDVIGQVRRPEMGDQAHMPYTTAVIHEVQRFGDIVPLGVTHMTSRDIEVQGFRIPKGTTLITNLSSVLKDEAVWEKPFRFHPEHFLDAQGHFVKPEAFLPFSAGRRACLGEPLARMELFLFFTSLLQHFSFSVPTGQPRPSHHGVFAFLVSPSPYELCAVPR
half-life [1],bioavailability [2],half-life [3],Compound,Ki (Cytochrome P450 2D6)
–,< 0.5%,< 2 h,COc1cc([C@@H]2Oc3cc([C@H]4Oc5cc(O)cc(O)c5C(=O)[C@@H]4O)ccc3O[C@H]2CO)ccc1O [SILYBIN B],–
20 h,–,–,CC(C)=CCc1c(O)cc(O)c2c1OC(c1ccc(O)cc1)CC2=O (configuration not stated) [SOPHORAFLAVANONE B],–
–,< 0.5%,< 2 h,COc1cc([C@H]2Oc3cc([C@H]4Oc5cc(O)cc(O)c5C(=O)[C@@H]4O)ccc3O[C@@H]2CO)ccc1O [SILYBIN A],–

# The next lines start with the compound.
Compound,half-life [1],bioavailability [2],half-life [3],Ki (Cytochrome P450 2D6)
COc1ccc2c(c1OC)CN(C)CCc1cc3c(cc1C(=O)C2)OCO3 [ALLOCRYPTOPINE],–,–,–,122 nM
COc1cc(O)c(CC=C(C)C)c(O)c1C(=O)/C=C/c1ccc(O)cc1 [XANTHOHUMOL],20 h,–,–,–
